Data taken from patent US5409952A, “Heterocyclic compounds: 2-styryl-4H-1-benzopyran-4-ones” (Adir et Compagnie, priority 1990, dated 1995).
pIC50: −log10 of the molar value.

Key:
HL-60 cells = assay: Cell differentiation of HL-60 cells (NBT reduction); format: cell-based, human; conditions: HL-60, 20 μM, six days
Experimental: The cell differentiation is determined according to the method of J. M. GALLUP and al. (Proceedings of the Society for Experimental Biology and Medecine, 186, 269-274, 1987).
HL-60 cells (human promyclocyte) (2×10^5 cells/ml) are incubated during six days with the tested compounds. An aliquot (0,5 ml) of cells is than incubated with 0,5 ml of a 0,2% NBT (Nitroblue Tetrazolium) solution and […] of PMA (phorbol ester) for 20 min at 37° C.
Cells are washed with PBS and numbered under microscope, Table VII lists the percentage of cells containing cristals of reduced NBT (i,e, % of positive NBT cells) at the concentration of 20 μM.

L1210 cell line = assay: Growth inhibition of cell line L1210 (tritiated thymidine incorporation); format: cell-based, mice; conditions: Mus musculus, L1210, 24 hours, read-out: IC50, concentration that inhibits cell growth by 50%
Experimental: The growth of this leukaemia cell line in mice is assessed by the capacity of the cells to incorporate tritiated thymidine. The rate of incorporation is measured 24 hours after the introduction of the test compound into the culture medium.
Table V lists, for each compound, the concentration that inhibits cell growth by 50%.

colon C38 adenocarcinoma = assay: Anti-tumour activity on colon C38 adenocarcinoma in vivo; design: species or system mice; conditions: colon 38 fragment s.c.; i.p. on 2nd and 4th days after implantation; day 20
Experimental: After subcutaneous implantation of a fragment of tumour (colon 38) in the axillary region, on the 2nd and 4th days after implantation a solution of the test compound is administered to a group of animals by the intraperitoneal route. On the 20th day the animals are sacrificed and the tumour volume is ascertained.
The % T/C ratio is calculated as follows: [formula]

[1] = patent EP 237166; isolated from an alga; cited from earlier work
Hypervitamin A toxicity = conditions: result in words

Row | Molecule | pIC50 (L1210 cell line) | % of positive NBT cells (HL-60 cells) | other results
1 | C=CCc1cccc2c(=O)cc(/C=C/c3ccccc3)oc12 [Example 18, 8-Allyl-2-Styryl-4H-1-Benzopyran-4-One] | 5.23 | – | –
2 | COC(=O)c1ccc(/C=C/c2cc(=O)c3c(OC)c(C(=O)OC)c(OC)cc3o2)cc1 [Example 4, Methyl 5,7-Dimethoxy-2-(4-Methoxycarbonyl-Styryl)-4H -1-Benzopyran-6-Carboxylate] | 4.92 | – | –
3 | hormo-thamnione | – | – | Cytotoxic properties [1]: cytotoxic properties
4 | C=CCc1cccc2c(=O)c(C)c(/C=C/c3ccccc3)oc12 [Example 19, 8-Allyl-3-Methyl-2-Styryl-4H-1-Benzopyran-4-One] | 5.18 | 45% | –
5 | CCCc1cccc2c(=O)cc(/C=C/c3ccccc3)oc12 [Example 21, 8-Propyl-2-Styryl-4H-1-Benzopyran-4-One] | 5.14 | – | –
6 | CC1=C(/C=C/C(C)=C/C=C/C(C)=C/C(=O)O)C(C)(C)CCC1 [Retinoic acid, reference compound] | 4.70 | – | Hypervitamin A toxicity (Hypervitamin A toxicity): causing hypervitamin A toxicity

More lines, in order of rising pIC50 (L1210 cell line), values ahead:

Row | pIC50 (L1210 cell line) | Molecule | % of positive NBT cells (HL-60 cells) | other results
7 | 4.90 | COC(=O)c1c(OC)cc2oc(/C=C/c3ccccc3)cc(=O)c2c1OC [Example 1, Methyl 5,7-Dimethoxy-4-Oxo-2-Styryl-4H-1-Benzopyran-6-Carboxylate] | 52% | T/C % (colon C38 adenocarcinoma): 56%; Tumour volume after 20 days (colon C38 adenocarcinoma): 573 mm3
8 | 5.07 | COc1ccc(/C=C/c2cc(=O)c3c(OC)c4ccoc4cc3o2)cc1OC [Example 7, 4-Methoxy-7-(3,4-Dimethoxystyryl)-5H -Furo[3,2-g]Benzopyran-5-One] | – | –
9 | 5.12 | Cc1c(/C=C/c2ccccc2)oc2c(C)cccc2c1=O [Example 17, 3,8-Dimethyl-2-Styryl-4H-1-Benzopyran-4-One] | – | –
10 | 5.19 | COC(=O)c1c(OC)cc2oc(/C=C/c3ccc(OC)c(OC)c3)cc(=O)c2c1OC [Example 2, Methyl 5,7-Dimethoxy-4-Oxo-2-(3,4-Dimethoxy-Styryl) -4H-1-Benzopyran-6-Carboxylate] | 85% | T/C % (colon C38 adenocarcinoma): 35%; Tumour volume after 20 days (colon C38 adenocarcinoma): 356 mm3
11 | 5.30 | COC(=O)c1c(OC)cc2oc(/C=C/c3cc(OC)c(OC)c(OC)c3)cc(=O)c2c1OC [Example 3, Methyl 5,7-Dimethoxy-4-Oxo-2-(3,4,5-Tri-Methoxystyryl) -4H-1-Benzopyran-6-Carboxylate] | 59% | –
12 | 5.52 | C=CCc1cc(OC)cc2c(=O)cc(/C=C/c3ccccc3)oc12 [Example 20, 6-Methoxy-8-Allyl-2-Styryl-4H-1-Benzopyran-4-One] | – | –
